Laboratory results reported in patent US20030175254A1, “Method of obtaining purified enterochromaffin cells and methods of using same” (priority 2001, published 2003).

Tested on: Intestinal EC Cells
Experiment: Serotonin release from cultured rat intestinal (ileal) EC cell fractions, serotonin EIA
Assay type: cell-based
Conditions: 60 minutes, 100,000 cells cultured overnight
Description: Male Sprague-Dawley rats (n=5 per preparation) were euthanized and the ileum was completely removed and divided into 2-3 pieces. Following end-ligation, these pieces of intestine were everted and filled with an enzyme mix of Pronase E (0.7 mg/mL), and collagenase (0.25 mg/ml). Cells were separated from the muscularis by alternative switching between a calcium containing Respiration medium and a 2 mM EDTA-containing digestive medium (with shaking). A total of 1-2×10^8 cells were obtained from each preparation. Five fractions of cells (F1-F5) were separated by counterflow-elutriation using flow rates of 25 ml/min at 2,500 rpm. Cells (100,000) were cultured overnight in Dulbecco's modified Eagles medium (DMEM)-F12 medium supplemented with 2 mg/ml bovine serum albumin, 5% fetal bovine serum, 5 mg/l gentamicin, 5 mg/l insulin, 5 mg/l transferring, 5 μg/l sodium selenite, and 1 nM hydrocortisone). After removal of the medium, fresh culture medium containing agonists (PACAP, galanin, forskolin, each at 10 nM) was added to the cells for 60 minutes. This medium was removed and the serotonin measured using an serotonin EIA kit and expressed as ng serotonin/100,000 cells/60 min.

Row | Compound | serotonin release, fold versus controls (agonist 10 nM, positive control, p<0.05) [fold] | serotonin release versus controls (10^-8 M, negatively regulated serotonin release)
1 | C=C[C@@]1(C)CC(=O)[C@]2(O)[C@@]3(C)[C@@H](O)CCC(C)(C)[C@@H]3[C@H](O)[C@H](OC(C)=O)[C@@]2(C)O1 [Forskolin] | 2.1±0.14 | –
2 | pituitary adenylate cyclase stimulating peptide [PACAP] | – | 0.88±0.06
